Assay results reported in PubChem BioAssay (NCI).
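Each compound was tested at five concentrations against cells in 96-well plates for 48 hours. Abbreviation: GI50, concentration required for 50% inhibition of growth. The concentration for full growth arrest is given as TGI.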

How the values were obtained:
Test in all cases: growth of human tumour cells (NCI), 48 h
786-0 renal = test system: 786-0 renal
A498 renal = test system: A498 renal
A549 NSCLC = test system: A549 NSCLC
ACHN renal = test system: ACHN renal
BT-549 breast = test system: BT-549 breast
CAKI-1 renal = test system: CAKI-1 renal
CCRF-CEM leukemia = test system: CCRF-CEM leukemia
COLO 205 colon = test system: COLO 205 colon
DU-145 prostate = test system: DU-145 prostate
EKVX NSCLC = test system: EKVX NSCLC
HCC-2998 colon = test system: HCC-2998 colon
HCT-116 colon = test system: HCT-116 colon
HCT-15 colon = test system: HCT-15 colon
HL-60(TB) leukemia = test system: HL-60(TB) leukemia
HOP-62 NSCLC = test system: HOP-62 NSCLC
HOP-92 NSCLC = test system: HOP-92 NSCLC
HS 578T breast = test system: HS 578T breast
HT29 colon = test system: HT29 colon
IGROV1 ovarian = test system: IGROV1 ovarian
K-562 leukemia = test system: K-562 leukemia
KM12 colon = test system: KM12 colon
LOX IMVI melanoma = test system: LOX IMVI melanoma
M14 melanoma = test system: M14 melanoma
MALME-3M melanoma = test system: MALME-3M melanoma
MCF7 breast = test system: MCF7 breast
MDA-MB-231 breast = test system: MDA-MB-231 breast
MDA-MB-435 = test system: MDA-MB-435
MDA-MB-468 breast = test system: MDA-MB-468 breast
MOLT-4 leukemia = test system: MOLT-4 leukemia
NCI-H226 lung = test system: NCI-H226 lung
NCI-H23 lung = test system: NCI-H23 lung
NCI-H460 lung = test system: NCI-H460 lung
NCI-H522 lung = test system: NCI-H522 lung
OVCAR-3 ovarian = test system: OVCAR-3 ovarian
OVCAR-4 ovarian = test system: OVCAR-4 ovarian
OVCAR-5 ovarian = test system: OVCAR-5 ovarian
OVCAR-8 ovarian = test system: OVCAR-8 ovarian
PC-3 prostate = test system: PC-3 prostate
RPMI-8226 leukemia = test system: RPMI-8226 leukemia
RXF 393 renal = test system: RXF 393 renal
SF-268 CNS = test system: SF-268 CNS
SF-295 CNS = test system: SF-295 CNS
SF-539 CNS = test system: SF-539 CNS
SK-MEL-2 melanoma = test system: SK-MEL-2 melanoma
SK-MEL-28 melanoma = test system: SK-MEL-28 melanoma
SK-MEL-5 melanoma = test system: SK-MEL-5 melanoma
SK-OV-3 ovarian = test system: SK-OV-3 ovarian
SN12C renal = test system: SN12C renal
SNB-19 CNS = test system: SNB-19 CNS
SNB-75 CNS = test system: SNB-75 CNS
SR leukemia = test system: SR leukemia
SW-620 colon = test system: SW-620 colon
T-47D breast = test system: T-47D breast
TK-10 renal = test system: TK-10 renal
U251 CNS = test system: U251 CNS
UACC-257 melanoma = test system: UACC-257 melanoma
UACC-62 melanoma = test system: UACC-62 melanoma
UO-31 renal = test system: UO-31 renal

Q: For `COc1ccccc1NC(=O)c1ccc(NC(=O)CCl)s1`, which GI50 (786-0 renal) is on record?
A: 12.3 µM

Q: What about the TGI (786-0 renal) of the same molecule?
A: 26.1 µM

Q: And the GI50 (A498 renal)?
A: 87.4 µM

Q: And the TGI (A498 renal)?
A: > 100 µM

Q: And the GI50 (A549 NSCLC)?
A: 14.7 µM

Q: What about the TGI (A549 NSCLC) of the same molecule?
A: 40 µM

Q: What about the GI50 (ACHN renal) of the same molecule?
A: 10.5 µM

Q: And the TGI (ACHN renal)?
A: 24.5 µM

Q: What about the GI50 (BT-549 breast) of the same molecule?
A: 12.2 µM

Q: And the TGI (BT-549 breast)?
A: 26.8 µM

Q: What about the GI50 (CAKI-1 renal) of the same molecule?
A: 12.8 µM

Q: And the TGI (CAKI-1 renal)?
A: 29 µM

Q: And the GI50 (CCRF-CEM leukemia)?
A: 3.62 µM

Q: What about the TGI (CCRF-CEM leukemia) of the same molecule?
A: 88.1 µM

Q: And the GI50 (COLO 205 colon)?
A: 15.1 µM

Q: And the TGI (COLO 205 colon)?
A: 35.5 µM

Q: What about the GI50 (DU-145 prostate) of the same molecule?
A: 24.7 µM

Q: What about the TGI (DU-145 prostate) of the same molecule?
A: 85 µM

Q: And the GI50 (EKVX NSCLC)?
A: 18 µM

Q: What about the TGI (EKVX NSCLC) of the same molecule?
A: 67.7 µM

Q: And the GI50 (HCC-2998 colon)?
A: 28.6 µM

Q: What about the TGI (HCC-2998 colon) of the same molecule?
A: > 100 µM

Q: What about the GI50 (HCT-116 colon) of the same molecule?
A: 5.52 µM

Q: What about the TGI (HCT-116 colon) of the same molecule?
A: 30.5 µM

Q: And the GI50 (HCT-15 colon)?
A: 4.29 µM

Q: And the TGI (HCT-15 colon)?
A: 29 µM

Q: And the GI50 (HL-60(TB) leukemia)?
A: 4.76 µM

Q: What about the TGI (HL-60(TB) leukemia) of the same molecule?
A: 35.6 µM

Q: What about the GI50 (HOP-62 NSCLC) of the same molecule?
A: 36.4 µM

Q: And the TGI (HOP-62 NSCLC)?
A: > 100 µM

Q: And the GI50 (HOP-92 NSCLC)?
A: 16.5 µM

Q: And the TGI (HOP-92 NSCLC)?
A: 34.7 µM

Q: And the GI50 (HS 578T breast)?
A: 15.1 µM

Q: What about the TGI (HS 578T breast) of the same molecule?
A: 54.4 µM

Q: And the GI50 (HT29 colon)?
A: 8.76 µM

Q: And the TGI (HT29 colon)?
A: 22.9 µM

Q: And the GI50 (IGROV1 ovarian)?
A: 15.6 µM

Q: And the TGI (IGROV1 ovarian)?
A: 34.9 µM

Q: And the GI50 (K-562 leukemia)?
A: 2.65 µM

Q: And the TGI (K-562 leukemia)?
A: > 100 µM

Q: And the GI50 (KM12 colon)?
A: 14.7 µM

Q: And the TGI (KM12 colon)?
A: 38.8 µM

Q: What about the GI50 (LOX IMVI melanoma) of the same molecule?
A: 4.81 µM

Q: And the TGI (LOX IMVI melanoma)?
A: 18.5 µM

Q: What about the GI50 (M14 melanoma) of the same molecule?
A: 13.1 µM

Q: What about the TGI (M14 melanoma) of the same molecule?
A: 28.7 µM

Q: And the GI50 (MALME-3M melanoma)?
A: 15.1 µM

Q: And the TGI (MALME-3M melanoma)?
A: 30.5 µM

Q: What about the GI50 (MCF7 breast) of the same molecule?
A: 5.02 µM

Q: And the TGI (MCF7 breast)?
A: 44 µM

Q: And the GI50 (MDA-MB-231 breast)?
A: 15.2 µM

Q: What about the TGI (MDA-MB-231 breast) of the same molecule?
A: 33.7 µM

Q: What about the GI50 (MDA-MB-435) of the same molecule?
A: 15.7 µM

Q: And the TGI (MDA-MB-435)?
A: 32.5 µM

Q: What about the GI50 (MDA-MB-468 breast) of the same molecule?
A: 12.4 µM

Q: And the TGI (MDA-MB-468 breast)?
A: 27.7 µM

Q: And the GI50 (MOLT-4 leukemia)?
A: 4.23 µM

Q: And the TGI (MOLT-4 leukemia)?
A: 40.6 µM

Q: And the GI50 (NCI-H226 lung)?
A: 14.6 µM

Q: And the TGI (NCI-H226 lung)?
A: 32.4 µM

Q: And the GI50 (NCI-H23 lung)?
A: 13.6 µM

Q: And the TGI (NCI-H23 lung)?
A: 31.2 µM

Q: And the GI50 (NCI-H460 lung)?
A: 11 µM

Q: What about the TGI (NCI-H460 lung) of the same molecule?
A: 35.4 µM

Q: And the GI50 (NCI-H522 lung)?
A: 10.6 µM

Q: What about the TGI (NCI-H522 lung) of the same molecule?
A: 24 µM

Q: What about the GI50 (OVCAR-3 ovarian) of the same molecule?
A: 13.6 µM

Q: And the TGI (OVCAR-3 ovarian)?
A: 29 µM

Q: And the GI50 (OVCAR-4 ovarian)?
A: 21 µM

Q: And the TGI (OVCAR-4 ovarian)?
A: 68.7 µM

Q: And the GI50 (OVCAR-5 ovarian)?
A: 23.6 µM

Q: What about the TGI (OVCAR-5 ovarian) of the same molecule?
A: 49.2 µM

Q: And the GI50 (OVCAR-8 ovarian)?
A: 12.7 µM

Q: And the TGI (OVCAR-8 ovarian)?
A: 33.8 µM

Q: What about the GI50 (PC-3 prostate) of the same molecule?
A: 11.1 µM

Q: And the TGI (PC-3 prostate)?
A: 28.4 µM

Q: What about the GI50 (RPMI-8226 leukemia) of the same molecule?
A: 13.6 µM

Q: And the TGI (RPMI-8226 leukemia)?
A: 38.6 µM

Q: What about the GI50 (RXF 393 renal) of the same molecule?
A: 11.6 µM

Q: And the TGI (RXF 393 renal)?
A: 25.1 µM

Q: What about the GI50 (SF-268 CNS) of the same molecule?
A: 18.8 µM

Q: What about the TGI (SF-268 CNS) of the same molecule?
A: 64.2 µM

Q: What about the GI50 (SF-295 CNS) of the same molecule?
A: 25.9 µM

Q: What about the TGI (SF-295 CNS) of the same molecule?
A: > 100 µM

Q: And the GI50 (SF-539 CNS)?
A: 16.2 µM

Q: And the TGI (SF-539 CNS)?
A: 30.8 µM

Q: What about the GI50 (SK-MEL-2 melanoma) of the same molecule?
A: 13.9 µM

Q: What about the TGI (SK-MEL-2 melanoma) of the same molecule?
A: 29.2 µM

Q: And the GI50 (SK-MEL-28 melanoma)?
A: 21.9 µM

Q: What about the TGI (SK-MEL-28 melanoma) of the same molecule?
A: 54.1 µM

Q: And the GI50 (SK-MEL-5 melanoma)?
A: 15.3 µM

Q: What about the TGI (SK-MEL-5 melanoma) of the same molecule?
A: 29.4 µM

Q: What about the GI50 (SK-OV-3 ovarian) of the same molecule?
A: 29.5 µM

Q: What about the TGI (SK-OV-3 ovarian) of the same molecule?
A: 74.9 µM

Q: And the GI50 (SN12C renal)?
A: 13.4 µM

Q: And the TGI (SN12C renal)?
A: 36 µM

Q: And the GI50 (SNB-19 CNS)?
A: 32.4 µM

Q: What about the TGI (SNB-19 CNS) of the same molecule?
A: > 100 µM

Q: What about the GI50 (SNB-75 CNS) of the same molecule?
A: 11.5 µM

Q: What about the TGI (SNB-75 CNS) of the same molecule?
A: 83.2 µM

Q: And the GI50 (SR leukemia)?
A: 3.11 µM

Q: What about the TGI (SR leukemia) of the same molecule?
A: > 100 µM

Q: What about the GI50 (SW-620 colon) of the same molecule?
A: 4.27 µM

Q: And the TGI (SW-620 colon)?
A: 21.7 µM

Q: What about the GI50 (T-47D breast) of the same molecule?
A: 42.3 µM

Q: What about the TGI (T-47D breast) of the same molecule?
A: > 100 µM

Q: What about the GI50 (TK-10 renal) of the same molecule?
A: 20.4 µM

Q: And the TGI (TK-10 renal)?
A: 73.6 µM

Q: And the GI50 (U251 CNS)?
A: 13.9 µM

Q: And the TGI (U251 CNS)?
A: 28.1 µM

Q: What about the GI50 (UACC-257 melanoma) of the same molecule?
A: 24.3 µM

Q: What about the TGI (UACC-257 melanoma) of the same molecule?
A: > 100 µM

Q: And the GI50 (UACC-62 melanoma)?
A: 16.1 µM

Q: What about the TGI (UACC-62 melanoma) of the same molecule?
A: 31 µM

Q: What about the GI50 (UO-31 renal) of the same molecule?
A: 13.7 µM

Q: And the TGI (UO-31 renal)?
A: 27.3 µM
